PubChem BioAssay AID248 (DTP/NCI, 2004)
Where “and” joins values, the source holds several entries; their conditions need not be identical. Equal values may be shown once. Inconclusive results and toxic doses are left out. Rule as the data show it: active = T/C of 150% or more; inactive = T/C below 125%.

Tested on: L1210 leukemia ip in BDF1 mice, survival T/C
Assay: NCI In Vivo Anticancer Drug Screen. Data for tumor model L1210 Leukemia (intraperitoneal) in B6D2F1 (BDF1) mice
Conditions: endpoint: mean survival time, higher = longer survival
Summary of the method: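 Antitumor effect is assessed in tumor-bearing animals. Survival in the compound arm is compared with a vehicle-dosed control arm and expressed as their quotient.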

[1] = dose: 100.0 mg/kg/injection, schedule: Q01DX001 (ip), vehicle: saline
[2] = dose: 200.0 mg/kg/injection, schedule: Q01DX001 (ip), vehicle: saline
[3] = dose: 400.0 mg/kg/injection, schedule: Q01DX001 (ip), vehicle: saline
[4] = dose: 100.0 mg/kg/injection, schedule: Q01DX009 (ip), vehicle: Klucel (hydroxypropylcellulose) (HPC)
[5] = dose: 100.0 mg/kg/injection, schedule: Q04DX003 (ip), vehicle: Klucel (hydroxypropylcellulose) (HPC)
[6] = dose: 200.0 mg/kg/injection, schedule: Q01DX009 (ip), vehicle: Klucel (hydroxypropylcellulose) (HPC)
[7] = dose: 200.0 mg/kg/injection, schedule: Q04DX003 (ip), vehicle: Klucel (hydroxypropylcellulose) (HPC)

Measured: T/C

C[C@]12C[C@H](O)[C@H]3[C@@H](CCC4=CC(=O)CC[C@@]43C)[C@@H]1CC[C@@H]2C(=O)CO
inactive: dose: 25.0 mg/kg/injection, schedule: Q01DX009 (sc), vehicle: steriod suspending solution 101 % of control | dose: 25.0 mg/kg/injection, schedule: Q01DX010 (sc), vehicle: steriod suspending solution 102 % of control | dose: 50.0 mg/kg/injection, schedule: Q01DX009 (sc), vehicle: steriod suspending solution 95 % of control and 103 % of control | dose: 50.0 mg/kg/injection, schedule: Q01DX010 (sc), vehicle: steriod suspending solution 104 % of control | dose: 100.0 mg/kg/injection, schedule: Q01DX009 (sc), vehicle: steriod suspending solution 94 % of control and 107 % of control | dose: 100.0 mg/kg/injection, schedule: Q01DX010 (sc), vehicle: steriod suspending solution 102 % of control | dose: 200.0 mg/kg/injection, schedule: Q01DX009 (sc), vehicle: steriod suspending solution 105 % of control and 113 % of control | dose: 200.0 mg/kg/injection, schedule: Q01DX010 (sc), vehicle: steriod suspending solution 102 % of control

CCCCCCCCCCCCCCCCCC(=O)OCCOCCOCCOCCOCCOCCOCCOCCOCCO
inactive: [1] 100 % of control | [2] 94 % of control | [3] 97 % of control

COc1cc(C(=Nc2ccccc2)C(=Nc2ccccc2)c2cc(OC)c(OC)c(OC)c2)cc(OC)c1OC
inactive: dose: 25.0 mg/kg/injection, schedule: Q01DX009 (ip), vehicle: Klucel (hydroxypropylcellulose) (HPC) 98 % of control | dose: 50.0 mg/kg/injection, schedule: Q01DX009 (ip), vehicle: Klucel (hydroxypropylcellulose) (HPC) 91 % of control | [4] 90 % of control | [5] 100 % of control | [6] 95 % of control and 116 % of control | [7] 97 % of control | dose: 400.0 mg/kg/injection, schedule: Q01DX009 (ip), vehicle: Klucel (hydroxypropylcellulose) (HPC) 120 % of control | dose: 400.0 mg/kg/injection, schedule: Q04DX003 (ip), vehicle: Klucel (hydroxypropylcellulose) (HPC) 96 % of control

C#CCNc1c(C)cccc1C
inactive: [4] 107 % of control | [5] 98 % of control | [6] 102 % of control | [7] 97 % of control

COc1ccc(OCC(C)=O)cc1
inactive: dose: 100.0 mg/kg/injection, schedule: Q01DX009 (ip), vehicle: saline with Tween-80 97 % of control | dose: 200.0 mg/kg/injection, schedule: Q01DX009 (ip), vehicle: saline with Tween-80 100 % of control | dose: 400.0 mg/kg/injection, schedule: Q01DX009 (ip), vehicle: saline with Tween-80 100 % of control

ClCCNCc1ccc(Nc2ccnc3cc(Cl)ccc23)cc1
inactive: dose: 75.0 mg/kg/injection, schedule: Q01DX001 (ip), vehicle: carboxymethylcellulose (CMC) 103 % of control

O=P1(Nc2ccc(Cl)cc2)OCC2(CO1)COP(=O)(Nc1ccc(Cl)cc1)OC2 (stereo unspecified)
inactive: dose: 50.0 mg/kg/injection, schedule: Q01DX001 (ip), vehicle: saline 98 % of control | [1] 93 % of control | [2] 101 % of control | [3] 117 % of control
